{
  "source": "patent US10883936B2",
  "about": "“Analysis of viable and nonviable cells” (SageMedic Corporation, priority 2018, dated 2021)",
  "key": {"[1]": {"test_system": "ovarian cancer primary tumor cells", "assay": "Confocal fluorescent microscopy of dyed primary tumor cells, dye combinations and addition sequences (Example 1)", "format": "cell-based", "experimental": "A 96 round bottom well plate was seeded with a single cell suspension of about 2,500 ovarian cancer primary tumor cells/20 μl/well at day 0. In each well, 80 μl of DMEM/2% alpha serum was added on top to the total volume of 100 μl/well. Dyes were prepared at 2-fold the desired final concentrations on the day of imaging. At day 3, 100 μL of dyeing mix was carefully added to each well to avoid disturbing the cells, to a final 1-fold concentration of dyes. Cells were incubated with dyes at 37° C. For this example, the dyes used were a membrane-permeable fluorescent dye (CYQUANT® GR, Thermo Fisher Scientific, Waltham, Mass.) and a membrane-impermeable fluorescent quenching dye (DRAQ7™, Thermo Fisher Scientific, Waltham, Mass.). The following dye combinations and sequences of dye addition were tested in triplicates, and similar results were seen among the triplicates. FIGS. 1A-1G show exemplary results of the dye combination and addition sequences, as follows.\nFIG. 1A is a confocal fluorescent microscopy image of a sample prepared by incubation with the membrane-impermeable fluorescent quenching dye for 30 min followed by addition of the masking agent (Diammonium 5-[(E)-(4-acetamido-2-sulfonatophenyl)diazenyl]-6-amino-4-hydroxy-2-naphthalenesulfonate; CAS Reg. No. 302912-22-7, Thermo Fischer Scientific, Waltham, Mass.) and incubation for an additional 1 h.\nFIG. 1B is a confocal fluorescent microscopy image of a sample prepared by incubation with the membrane-impermeable fluorescent quenching dye for 30 min.\nFIG. 1C is a confocal fluorescent microscopy image of a sample prepared by incubation with the membrane-impermeable fluorescent quenching dye for 30 min, followed by addition of the membrane-permeable fluorescent dye and incubation for an additional 1 h.\nFIG. 1D is a confocal fluorescent microscopy image of a sample prepared by incubation with the membrane-impermeable fluorescent quenching dye for 30 min, followed by addition of the membrane-permeable fluorescent dye and masking reagent and incubation for an additional 1 h.\nFIG. 1E is a confocal fluorescent microscopy image of a sample prepared by incubation with the membrane-permeable fluorescent dye alone for 1 h.\nFIG. 1F is a confocal fluorescent microscopy image of a sample prepared by incubation with the membrane-permeable fluorescent dye alone for 1 h, followed by addition of the membrane-impermeable fluorescent quenching dye and incubation for an additional 30 min.\nFIG. 1G is a confocal fluorescent microscopy image of a sample prepared by incubation with the membrane-permeable fluorescent dye and masking reagent for 1 h, followed by addition of the membrane-impermeable fluorescent quenching dye and incubation for an additional 30 min."}, "[2]": {"test_system": "ovarian cancer primary tumor cells", "assay": "Dynamic confocal fluorescent microscopy after adding quenching dye to cells pre-dyed with membrane-permeable dye (Example 2)", "format": "cell-based", "conditions": "for change of fluorescence intensity over time: 0-45 min after addition of quenching dye; for dyeing of the nonviable cells: by 45 min after addition of quenching dye", "experimental": "In order to further examine the dyeing behavior and kinetics of the membrane-impermeable fluorescent quenching dye and the membrane-permeable fluorescent dye of Example 1 when mixed together, an additional experiment was performed on day 7 of culture as follows.\nOn day 7, 20 μL of the membrane-permeable fluorescent dye was added at 6× concentration to each well. The cells were incubated with dye at 37° C. for 1 hour. Confocal fluorescent microscopy was performed after incubation. About 20 μL of the membrane-impermeable fluorescent quenching dye was added directly to the same well on the stage at 6× concentration without disturbing the cells.\nDynamic confocal fluorescent microscopy images were taken of the cells immediately after addition of the membrane-impermeable fluorescent quenching dye (FIG. 2A, 2B), as well as at 5 min (FIG. 2C, 2D), 20 min (FIG. 2E, 2F), 30 min (FIG. 2G, 2H) and 45 min (FIG. 2I, 2J) after addition."}, "[3]": {"conditions": "FIG. 1C: quenching dye 30 min, then membrane-permeable dye, additional 1 h"}, "[4]": {"conditions": "FIG. 1D: quenching dye 30 min, then membrane-permeable dye and masking reagent, additional 1 h"}, "[5]": {"conditions": "FIG. 1F: membrane-permeable dye 1 h, then quenching dye, additional 30 min"}, "[6]": {"conditions": "FIG. 1G: membrane-permeable dye and masking reagent 1 h, then quenching dye, additional 30 min"}},
  "data": [
    {"molecule": "CYQUANT® GR [membrane-permeable fluorescent dye]", "values": [
      {"measurement": "signal observed by confocal fluorescent microscopy", "setting": "[1]; [3]", "result": "discrete green signals"},
      {"measurement": "signal observed by confocal fluorescent microscopy", "setting": "[1]; [4]", "result": "discrete green signals were observed"},
      {"measurement": "signal observed by confocal fluorescent microscopy", "setting": "[1]; FIG. 1E: membrane-permeable fluorescent dye alone, 1 h, 37° C.", "result": "discrete green signals were observed"},
      {"measurement": "signal observed by confocal fluorescent microscopy", "setting": "[1]; [5]", "result": "discrete green signals"},
      {"measurement": "signal observed by confocal fluorescent microscopy", "setting": "[1]; [6]", "result": "discrete green signals were observed"},
      {"measurement": "cells dyed by the dye alone", "setting": "[1]; dye alone", "result": "dyed both viable and nonviable cells"},
      {"measurement": "change of fluorescence intensity over time", "setting": "[2]", "result": "significant decrease over time"},
      {"measurement": "dyeing of the nonviable cells", "setting": "[2]", "result": "negligible"}
    ]},
    {"molecule": "DRAQ7™", "values": [
      {"measurement": "signal observed by confocal fluorescent microscopy", "setting": "[1]; FIG. 1B: membrane-impermeable fluorescent quenching dye alone, 30 min, 37° C., day 3", "result": "discrete red signals were observed"},
      {"measurement": "signal observed by confocal fluorescent microscopy", "setting": "[1]; [3]", "result": "discrete red signals were observed"},
      {"measurement": "signal observed by confocal fluorescent microscopy", "setting": "[1]; [5]", "result": "discrete red signals were observed"},
      {"measurement": "change of fluorescence intensity over time", "setting": "[2]", "result": "increase over time"},
      {"measurement": "dyeing of the nonviable cells", "setting": "[2]", "result": "positive"},
      {"measurement": "time after addition of the dye at which the brightest images (fluorescence intensity) were acquired", "setting": "[2]; day 7, FIG. 2I, 2J", "result": 45, "unit": "min"},
      {"measurement": "time after addition at which green cells becoming red is visually noticeable", "setting": "[2]; day 7, membrane-permeable dye 1 hour at 37° C., then quenching dye added", "result": "20 to 30", "unit": "min"}
    ]},
    {"molecule": "CC(=O)Nc1ccc(/N=N/c2c(N)ccc3cc(S(=O)(=O)O)cc(O)c23)c(S(=O)(=O)O)c1.N.N", "note": "[masking agent, Diammonium 5-[(E)-(4-acetamido-2-sulfonatophenyl)diazenyl]-6-amino-4-hydroxy-2-naphthalenesulfonate]", "values": [
      {"measurement": "signal observed by confocal fluorescent microscopy", "setting": "[1]; FIG. 1A: quenching dye 30 min, then masking agent, additional 1 h", "result": "no signal was observed"},
      {"measurement": "signal observed by confocal fluorescent microscopy", "setting": "[1]; [4]", "result": "No red signal was observed"},
      {"measurement": "signal observed by confocal fluorescent microscopy", "setting": "[1]; [6]", "result": "No red signal was observed"}
    ]}
  ]
}
